Results taken from ChEMBL document CHEMBL1145740, “Novel alpha-amino-acid phenolic ester derivatives with intravenous anaesthetic activity” (Bioorg Med Chem Lett, 2003).

Experiments:
Mus musculus = assay: Intravenous hypnotic dose that caused a loss of righting reflex for a minimum period of 30s in 50% of treated mice determined by probit analysis.; type: functional
[1] = target: GABA-A receptor; anion channel; assay: In vitro inhibition of [35S]TBPS binding to GABA-A receptor of rat whole brain membranes; type: cell membranes

COc1cccc(OC)c1OC(=O)C(CCSC)N1CCCC1 (stereo not given) was tested, and the HD50 (Mus musculus) was 40 µM/kg.
COC(=O)CC(C(=O)Oc1c(OC)cccc1OC)N1CCCCCC1 (stereo not given) was tested, and the IC50 [1] was 4.2 µM and the HD50 (Mus musculus) was 22.9 µM/kg.
In the case of COC(=O)CC(C(=O)Oc1c(OC)cccc1OC)N1CCCCC1 (stereo not given), the IC50 [1] is reported as 11.7 µM and the HD50 (Mus musculus) is reported as 26.4 µM/kg.
Compound COc1cccc(OC)c1OC(=O)C(CCS(C)(=O)=O)N1CCOCC1 (stereo not given) has an HD50 (Mus musculus) of 99 µM/kg.
COCCN(CCOC)C(CC(=O)OC)C(=O)Oc1c(OC)cc(C)cc1OC (stereo not given) showed an HD50 (Mus musculus) of 48 µM/kg.
In the case of COCCN(CCOC)C(CCSC)C(=O)Oc1c(OC)cc(C)cc1OC (stereo not given), the IC50 [1] is reported as 6.9 µM and the HD50 (Mus musculus) is reported as 22.6 µM/kg.
For COc1cc(C)cc(OC)c1OC(=O)C(CC(=O)N1CCCC1)N1CCCC1 (stereo not given), the HD50 (Mus musculus) was 81 µM/kg.
COc1cc(C)cc(OC)c1OC(=O)C(CCSC)N1CCOCC1 (stereo not given) showed an HD50 (Mus musculus) of 34.8 µM/kg.
Compound COC(=O)CC(C(=O)Oc1c(OC)cccc1OC)N1CCCC1 (stereo not given) has an HD50 (Mus musculus) of 77 µM/kg.
CC[C@H](C(=O)Oc1c(OC)cc(C)cc1OC)N(CCOC)CCOC [ORG-24447] was tested, and the HD50 (Mus musculus) was 21.7 µM/kg.
In the case of COC(=O)CC(C(=O)Oc1c(OC)cc(C)cc1OC)N1CCOCC1 (stereo not given), the HD50 (Mus musculus) is reported as 46 µM/kg.
With COc1cccc(OC)c1OC(=O)C(CCSC)N1CCOCC1 (stereo not given) the HD50 (Mus musculus) was 26.1 µM/kg.
Work on COC(=O)CC(C(=O)Oc1c(OC)cc(C)cc1OC)N1CCCCCC1 (stereo not given) yielded an HD50 (Mus musculus) of 26 µM/kg.
COCCN(CCOC)C(CC(=O)OC)C(=O)Oc1c(OC)cccc1OC (stereo not given) was tested, and the HD50 (Mus musculus) was 48 µM/kg.
For COc1cccc(OC)c1OC(=O)C(CC(=O)N1CCCCC1)N1CCCCC1 (stereo not given), the HD50 (Mus musculus) was 39 µM/kg.
COCCN(CCOC)C(CCS(C)(=O)=O)C(=O)Oc1c(OC)cccc1OC (stereo not given) showed an HD50 (Mus musculus) greater than 106 µM/kg.
COc1cccc(OC)c1OC(=O)C(CCSC)N1CCCCCCC1 (stereo not given) gave an HD50 (Mus musculus) of 35 µM/kg.
CCN(CC)C(=O)CC(C(=O)Oc1c(OC)cccc1OC)N1CCOCC1 (stereo not given) gave an HD50 (Mus musculus) of 117 µM/kg.
COc1cc(C)cc(OC)c1OC(=O)C(CCS(C)(=O)=O)N1C=CCCC1 (stereo not given) showed an IC50 [1] of 6.2 µM and an HD50 (Mus musculus) of 39.3 µM/kg.
In the case of COC(=O)CC(C(=O)Oc1c(OC)cccc1OC)N1CCOCC1 (stereo not given), the HD50 (Mus musculus) is reported as 79 µM/kg.
COc1cc(C)cc(OC)c1OC(=O)C(CC[S+](C)[O-])N1CCCC1 (stereo not given) gave an HD50 (Mus musculus) of 73 µM/kg.
With COc1cccc(OC)c1OC(=O)C(CC(=O)N1CCCC1)N1CCCC1 (stereo not given) the HD50 (Mus musculus) was 102 µM/kg.
Compound COc1cc(C)cc(OC)c1OC(=O)C(CCS(C)(=O)=O)N1CCOCC1 (stereo not given) has an HD50 (Mus musculus) of 108 µM/kg.
COc1cccc(OC)c1OC(=O)C(CC(=O)N1CCOCC1)N1CCOCC1 (stereo not given) gave an HD50 (Mus musculus) greater than 225 µM/kg.
COCCN(CCOC)C(CCS(C)(=O)=O)C(=O)Oc1c(OC)cc(C)cc1OC (stereo not given) was tested, and the HD50 (Mus musculus) was 77 µM/kg.
COc1cc(C)cc(OC)c1OC(=O)C(CC[S+](C)[O-])N1CCOCC1 (stereo not given) was tested, and the HD50 (Mus musculus) was 299 µM/kg.
COc1cc(C)cc(OC)c1OC(=O)C(CC(=O)N1CCOCC1)N1CCOCC1 (stereo not given) was tested, and the HD50 (Mus musculus) was greater than 218 µM/kg.
For COC(=O)CC(C(=O)Oc1c(OC)cc(C)cc1OC)N1CCCC1 (stereo not given), the HD50 (Mus musculus) was 52 µM/kg.
Work on COC(=O)CC(C(=O)Oc1c(OC)cc(C)cc1OC)N1CCCCC1 (stereo not given) yielded an IC50 [1] of 14.7 µM and an HD50 (Mus musculus) of 48 µM/kg.
Compound COc1cc(C)cc(OC)c1OC(=O)C(CCSC)N1CCCC1 (stereo not given) has an IC50 [1] of 2.7 µM and an HD50 (Mus musculus) of 31.4 µM/kg.
Work on COc1cccc(OC)c1OC(=O)C(CCSC)N1CCCCC1 (stereo not given) yielded an IC50 [1] of 4 µM and an HD50 (Mus musculus) of less than 25 µM/kg.
Compound COc1cc(C)cc(OC)c1OC(=O)C(CC(=O)N1CCCC1)N1CCCCCC1 (stereo not given) has an HD50 (Mus musculus) of 67 µM/kg.
COc1cccc(OC)c1OC(=O)C(CC(=O)N1CCCC1)N1CCCCCC1 (stereo not given) gave an HD50 (Mus musculus) of 34 µM/kg.
CC(C)c1cccc(C(C)C)c1O [PROPOFOL] showed an HD50 (Mus musculus) of 68 µM/kg.
CCN(CC)C(=O)CC(C(=O)Oc1c(OC)cc(C)cc1OC)N1CCOCC1 (stereo not given) showed an HD50 (Mus musculus) of 38 µM/kg.
COc1cccc(OC)c1OC(=O)C(CCSC)N1CCCCCC1 (stereo not given) showed an IC50 [1] of 9.7 µM and an HD50 (Mus musculus) of 18.2 µM/kg.
COc1cc(C)cc(OC)c1OC(=O)C(CC(=O)N1CCCCC1)N1CCCCC1 (stereo not given) gave an HD50 (Mus musculus) of 37.5 µM/kg.
